≈ marks a conversion by molar mass, not a printed value. Square brackets hold non-standard residues; d marks the D form. Peptide text beside a SMILES is read from it. Ahx = NCCCCCC(=O)O
tested on: Enterobacter; format: cell-based; conditions: not given
Procedure: The IC50 is determined by an essay, suitable for the specific film-forming microorganism in question. For example, in the present invention, the Enterobacter assay, which is described in detail in the methods section below, was used to determine the antimicrobial activities of the tested peptides.
Quantitative Biofilm Growth Inhibition Assay in a 96-Wells Microtiter Plate:
Enterobacter culture (50 ml) was grown in tryptic soy broth media (TBS; prepared according to manufacturer instructions) overnight at 25° C. On the next day the turbidity of the culture was measured at 600 nm (Biomate 5 UV-Vis spectrophotometer, Thermo Fisher Scientific, Waltham, Mass.) and, if necessary, TSB was added to dilute the culture until the OD was 1.
Then 96 wells polystyrene microtiter plates (flat bottom, transparent, Becton Dickinson, Franklin Lakes, New-Jersey) were filled as following: Negative control wells (without bacteria) were filled with 125 μl TSB media and 25 μl of DDW:PBS1:1 buffer solution; Positive control wells (without peptide solution) were filled with 110 μl TSB media, 25 μl of DDW:PBS1:1 buffer solution and 15 μl of Enterobacter culture solution; Wells that contained AMPs at different concentrations were filled with 110 μl TSB media, 25 μl of peptide solution and 15 μl of Enterobacter culture solution.
The plates were incubated at 25° C. overnight. On the next day the plates were gently rinsed 5 times with distilled water to remove the planktonic bacteria and then dried at room temperature for 10 minutes. Then the biofilm on the walls of the wells was dyed by adding 200 μl, of 3% crystal violet (CV) to the wells. After 15 minutes at room temperature, the plates were gently rinsed 5 times with distilled water to remove excess dye and dried at room temperature for 10 minutes (Djordjevic, Wiedmann & McLandsborough 2002). The dry plates were filled with 200 μl ethanol, covered and gently agitated (Duomax 1030 rocking platform shaker, Heidolph, Kelheim, Germany) for 1 hour. The absorbance of extracted color was measured in a plate reading spectrophotometer (Infinite M200, Tecan, Mannedorf, Switzerland) at 595 nm.
The effect of linking the arm to a peptide, on the antimicrobial activity of the peptides was assessed by measuring the peptide activity in 96-microtitter plates in solution and comparing to activities of the normal peptides. Experiments were performed in water and in 3% NaCl solution. Table 6 presents the antimicrobial activity (IC50) of peptide-arm systems, in water and in 3% NaCl solution. Values were extracted from dose-response curves.
Different concentration solutions of peptides, bought or prepared as detailed in the methods section above, were prepared by diluting a stock solution with 1% ACN. Stock solution was prepared by dissolving water soluble peptides in DDW:PBS1:1. PBS (pH=7.4) was prepared by adding to 800 ml DDW, 8 grams NaCl, 0.2 grams KCl, 1.44 grams Na2HPO4 and 0.2 grams KH2PO4.
To evaluate whether attachment of a tether to the AMPs has an effect on the inhibitory potency, a PEGylated peptide (HS-PEG-D-Modelin-1) was prepared, and its inhibitory potency compared to that of the ‘normal’ peptide All-D-Modelin-1. Peptides were diluted in 2-fold serial dilutions, and the antibacterial activity of the peptides was determined in sterile 96-multititter plates.

IC50 in 3% Aqueous NaCl [mg/L] | Compound | IC50 Normal conditions [mg/L]
>300 | N=C(N)NCCC[C@H](NC(=O)CCCCCNC(=O)[C@@H](N)CS)C(=O)N[C@@H](CCCNC(=N)N)C(=O)N[C@@H](Cc1c[nH]c2ccccc12)C(=O)N[C@@H](Cc1c[nH]c2ccccc12)C(=O)N[C@@H](CCCNC(=N)N)C(=O)N[C@@H](Cc1ccccc1)C(N)=O [CX-Hexapeptide-4, CXRRWWRF-NH2] (H-C[Ahx]RRWWRF-NH2; N-terminus assumed) | 80 (≈ 65.5 µM)
300 (≈ 140 µM) | CC(C)C[C@H](NC(=O)[C@H](CCCCN)NC(=O)[C@H](Cc1ccccc1)NC(=O)[C@H](CC(C)C)NC(=O)[C@H](CC(C)C)NC(=O)CNC(=O)[C@H](CCCCN)NC(=O)[C@H](CC(C)C)NC(=O)[C@H](CCCCN)NC(=O)[C@@H]1CCCN1C(=O)[C@H](CC(C)C)NC(=O)[C@H](CC(C)C)NC(=O)[C@H](CC(C)C)NC(=O)[C@H](CCCCN)NC(=O)[C@H](CC(C)C)NC(=O)[C@H](CC(C)C)NC(=O)[C@H](CCCCN)NC(=O)[C@@H](N)Cc1ccc(O)cc1)C(N)=O [L^6P^9G^13F^16, reference compound] (H-YKLLKLLLPKLKGLLFKL-NH2; N-terminus and C-terminus assumed) | 40 (≈ 18.7 µM)
– | CC(C)C[C@H](NC(=O)[C@H](CCCCN)NC(=O)CCCCCNC(=O)[C@@H](N)CS)C(=O)N[C@@H](Cc1c[nH]c2ccccc12)C(=O)N[C@@H](CCCCN)C(=O)N[C@@H](CCCCN)C(=O)N[C@@H](Cc1c[nH]c2ccccc12)C(=O)N[C@@H](C)C(=O)N[C@@H](CCCCN)C(=O)N[C@@H](CCCCN)C(=O)N[C@@H](Cc1c[nH]c2ccccc12)C(=O)N[C@@H](CC(C)C)C(=O)N[C@@H](CCCCN)C(=O)N[C@@H](CC(C)C)C(=O)N[C@@H](Cc1c[nH]c2ccccc12)C(=O)N[C@@H](CCCCN)C(=O)N[C@@H](C)C(=O)N[C@@H](Cc1c[nH]c2ccccc12)C(=O)O [CX-Modelin-1, CXKLWKKWAKKWLKLWKAW] (H-C[Ahx]KLWKKWAKKWLKLWKAW-OH; N-terminus assumed) | 60 (≈ 23.6 µM)
100 (≈ 99.5 µM) | N=C(N)NCCC[C@H](NC(=O)[C@H](Cc1c[nH]c2ccccc12)NC(=O)[C@H](Cc1c[nH]c2ccccc12)NC(=O)[C@H](CCCNC(=N)N)NC(=O)[C@@H](N)CCCNC(=N)N)C(=O)N[C@@H](Cc1ccccc1)C(N)=O [Hexapeptide-4, RRWWRF-NH2, reference compound] (H-RRWWRF-NH2; N-terminus assumed) | 60 (≈ 59.7 µM)
120 (≈ 46.9 µM) | CC(C)C[C@H](NC(=O)[C@H](CCCCN)NC(=O)CNC(=O)CNC(=O)CNC(=O)CN)C(=O)N[C@@H](Cc1c[nH]c2ccccc12)C(=O)N[C@@H](CCCCN)C(=O)N[C@@H](CCCCN)C(=O)N[C@@H](Cc1c[nH]c2ccccc12)C(=O)N[C@@H](C)C(=O)N[C@@H](CCCCN)C(=O)N[C@@H](CCCCN)C(=O)N[C@@H](Cc1c[nH]c2ccccc12)C(=O)N[C@@H](CC(C)C)C(=O)N[C@@H](CCCCN)C(=O)N[C@@H](CC(C)C)C(=O)N[C@@H](Cc1c[nH]c2ccccc12)C(=O)N[C@@H](CCCCN)C(=O)N[C@@H](C)C(=O)N[C@@H](Cc1c[nH]c2ccccc12)C(=O)O [Peptide G4-Modelin-1] (H-GGGGKLWKKWAKKWLKLWKAW-OH; N-terminus and C-terminus assumed) | 70 (≈ 27.4 µM)
>300 | CC(C)C[C@H](NC(=O)[C@H](CCCCN)NC(=O)[C@H](Cc1ccccc1)NC(=O)[C@H](CC(C)C)NC(=O)[C@H](CC(C)C)NC(=O)CNC(=O)[C@H](CCCCN)NC(=O)[C@H](CC(C)C)NC(=O)[C@H](CCCCN)NC(=O)[C@@H]1CCCN1C(=O)[C@H](CC(C)C)NC(=O)[C@H](CC(C)C)NC(=O)[C@H](CC(C)C)NC(=O)[C@H](CCCCN)NC(=O)[C@H](CC(C)C)NC(=O)[C@H](CC(C)C)NC(=O)[C@H](CCCCN)NC(=O)[C@H](Cc1ccc(O)cc1)NC(=O)CNC(=O)CNC(=O)CNC(=O)CNC(=O)[C@@H](N)CS)C(N)=O [CG4-L^6P^9G^13F^16] (H-CGGGGYKLLKLLLPKLKGLLFKL-NH2; N-terminus assumed) | 110 (≈ 44.5 µM)

same assay, conditions: peptide in solution, 3% NaCl solution, 96-microtitter plates; values extracted from dose-response curves

Compound | IC50 in 3% Aqueous NaCl [mg/L]
CC(C)C[C@H](NC(=O)[C@H](CCCCN)NC(=O)[C@H](CC(C)C)NC(=O)[C@H](Cc1c[nH]c2ccccc12)NC(=O)[C@H](CCCCN)NC(=O)[C@H](CCCCN)NC(=O)[C@H](C)NC(=O)[C@H](Cc1c[nH]c2ccccc12)NC(=O)[C@H](CCCCN)NC(=O)[C@H](CCCCN)NC(=O)[C@H](Cc1c[nH]c2ccccc12)NC(=O)[C@H](CC(C)C)NC(=O)[C@@H](N)CCCCN)C(=O)N[C@@H](Cc1c[nH]c2ccccc12)C(=O)N[C@@H](CCCCN)C(=O)N[C@@H](C)C(=O)N[C@@H](Cc1c[nH]c2ccccc12)C(=O)O [Modelin-1, KLWKKWAKKWLKLWKAW, reference compound] | 100 (≈ 43 µM)

same assay, conditions: peptide in solution, water, 96-microtitter plates; values extracted from dose-response curves

Compound | IC50 Normal conditions [mg/L]
CC(C)C[C@H](NC(=O)[C@H](CCCCN)NC(=O)[C@H](CC(C)C)NC(=O)[C@H](Cc1c[nH]c2ccccc12)NC(=O)[C@H](CCCCN)NC(=O)[C@H](CCCCN)NC(=O)[C@H](C)NC(=O)[C@H](Cc1c[nH]c2ccccc12)NC(=O)[C@H](CCCCN)NC(=O)[C@H](CCCCN)NC(=O)[C@H](Cc1c[nH]c2ccccc12)NC(=O)[C@H](CC(C)C)NC(=O)[C@@H](N)CCCCN)C(=O)N[C@@H](Cc1c[nH]c2ccccc12)C(=O)N[C@@H](CCCCN)C(=O)N[C@@H](C)C(=O)N[C@@H](Cc1c[nH]c2ccccc12)C(=O)O [Modelin-1, KLWKKWAKKWLKLWKAW, reference compound] | 20 (≈ 8.59 µM)
CC[C@H](C)[C@H](NC(=O)[C@H](CCCNC(=N)N)NC(=O)CNC(=O)[C@H](CC(C)C)NC(=O)[C@H](Cc1ccccc1)NC(=O)[C@H](CCCCN)NC(=O)[C@H](CO)NC(=O)[C@H](Cc1ccccc1)NC(=O)[C@H](Cc1c[nH]c2ccccc12)NC(=O)[C@H](CCC(N)=O)NC(=O)[C@@H](NC(=O)[C@H](Cc1ccccc1)NC(=O)CCCCCNC(=O)[C@@H](N)CS)C(C)C)C(=O)N[C@@H](CC(C)C)C(N)=O [CX-Temporin-L, CXFVQWFSKFLGRIL-NH2] (H-C[Ahx]FVQWFSKFLGRIL-NH2) | >300

same assay, conditions: repeated assay; D-Modelin-1 (crude) and HS-PEG-D-Modelin-1 prepared in the same synthesis

Compound | IC50 [mg/L]
CC(C)C[C@@H](NC(=O)[C@H](N)CCCCN)C(=O)N[C@H](Cc1c[nH]c2ccccc12)C(=O)N[C@H](CCCCN)C(=O)N[C@H](CCCCN)C(=O)N[C@H](Cc1c[nH]c2ccccc12)C(=O)N[C@H](C)C(=O)N[C@H](CCCCN)C(=O)N[C@H](CCCCN)C(=O)N[C@H](Cc1c[nH]c2ccccc12)C(=O)N[C@H](CC(C)C)C(=O)N[C@H](CCCCN)C(=O)N[C@H](CC(C)C)C(=O)N[C@H](Cc1c[nH]c2ccccc12)C(=O)N[C@H](CCCCN)C(=O)N[C@H](C)C(=O)N[C@H](Cc1c[nH]c2ccccc12)C(=O)O [D-Modelin-1, KLWKKWAKKWLKLWKAW] | 3 (≈ 1.29 µM)
